Experimental data from ChEMBL document CHEMBL1201862, “PubChem BioAssay data set” (2004).
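All cell lines were grown in 96-well plates and treated with compound for 48 hours. GI50 is the concentration that inhibits growth by half.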 The source made the active and inactive calls. Rule as the data show it: active = GI50 up to about 1.1 µM and inactive = higher.

How the values were obtained:
Test in all cases: NCI-60 cell line screen, 48 h
DLD-1 = system: DLD-1
M19-MEL = system: M19-MEL
KM-20L2 = system: KM-20L2
HOP-62 = system: HOP-62
SNB-78 = system: SNB-78
SF-539 = system: SF-539
HOP-18 = system: HOP-18
MCF7 = system: MCF7
XF498 = system: XF498
DMS-273 = system: DMS-273
LOX IMVI = system: LOX IMVI
HCC 2998 = system: HCC 2998
NCI/ADR-RES = system: NCI/ADR-RES
DMS-114 = system: DMS-114

SMILES | GI50 (DLD-1) | GI50 (M19-MEL) | GI50 (KM-20L2) | GI50 (HOP-62) | GI50 (SNB-78) | GI50 (SF-539) | GI50 (HOP-18) | GI50 (MCF7) | GI50 (XF498) | GI50 (DMS-273) | GI50 (LOX IMVI) | GI50 (HCC 2998) | GI50 (NCI/ADR-RES) | GI50 (DMS-114)
O=C(O)CNS(=O)(=O)c1ccc(NC(=O)Nc2ccccc2)cc1 | > 100 µM (inactive) | > 38 µM (inactive) | > 100 µM (inactive) | > 100 µM (inactive) | > 100 µM (inactive) | > 100 µM (inactive) | > 100 µM (inactive) | > 100 µM (inactive) | > 100 µM (inactive) | > 100 µM (inactive) | > 100 µM (inactive) | > 100 µM (inactive) | > 100 µM (inactive) | > 100 µM (inactive)
CN(C)CCNC(=O)c1cccc2[nH]c(-c3ccc(Cl)cc3)nc12 | 4.8 µM (inactive) | 6.98 µM (inactive) | 5.14 µM (inactive) | 8.77 µM (inactive) | 15.9 µM (inactive) | 4.65 µM (inactive) | 14.4 µM (inactive) | 3.66 µM (inactive) | 4.49 µM (inactive) | 4.03 µM (inactive) | 4.42 µM (inactive) | 4.05 µM (inactive) | 5.42 µM (inactive) | 8.61 µM (inactive)
COc1cc(C2(c3ncc[nH]3)SSSCC2O)ccc1O (stereo unspecified) | 58.5 µM (inactive) | 12.2 µM (inactive) | > 92.5 µM (inactive) | > 66.4 µM (inactive) | 34.2 µM (inactive) | > 59 µM (inactive) | > 66.4 µM (inactive) | 39.6 µM (inactive) | > 71 µM (inactive) | 30.1 µM (inactive) | 19.1 µM (inactive) | 27.9 µM (inactive) | > 40.6 µM (inactive) | 18.2 µM (inactive)
O=C1C2=C(C3=NCCc4c[nH]c1c43)c1c(Br)cc(Br)cc1CCN2 | 1.79 µM (inactive) | 0.661 µM (active) | 2.75 µM (inactive) | 14.6 µM (inactive) | 5.55 µM (inactive) | 3.42 µM (inactive) | 3.15 µM (inactive) | 1.8 µM (inactive) | 10.7 µM (inactive) | 3.12 µM (inactive) | 1.23 µM (inactive) | 2.01 µM (inactive) | 4.71 µM (inactive) | 2.02 µM (inactive)
